The record followed here is ChEMBL document CHEMBL1135213, “New indene-derivatives with anti-proliferative properties” (Bioorg Med Chem Lett, 2002).

Calls of active or inactive are those of the source. No cut-off for these calls is given here.

For assay [1], the system named is MDCK. Kind of assay: Anti-proliferative activity was evaluated by its ability to inhibit proliferation of MDCK-f3 (Madin-Darby canine kidney f3) cell line. The assay is classed as functional, cell-based, Canis lupus familiaris.
Assay [2] can be described thus: Inhibition of p21ras protein and Raf kinase in vitro using recombinant proteins. Further details: unit not given here.
Assay [3] has as its system SW480. Kind of assay: Anti-proliferative activity was evaluated by its ability to inhibit proliferation of SW480 cells; na means Not active. The assay is classed as functional, cell-based, Homo sapiens.
In assay [4] the test system is NIH3T3. Kind of assay: Anti-proliferative activity was evaluated by its ability to inhibit proliferation of murine NIH3T3 fibroblasts. The assay is classed as functional, cell-based, Mus musculus.
Assay [5] relates to MDCK. Kind of assay: Anti-proliferative activity was evaluated by its ability to inhibit proliferation of MDCK cells. The assay is classed as functional, cell-based, Canis lupus familiaris.
The subject of assay [6] is REF. Kind of assay: Anti-proliferative activity was evaluated by its ability to inhibit proliferation of rat embryonic fibroblasts (REF). The assay is classed as functional, cell-based.
The target in assay [7] is T1, Cyclooxygenase (Homo sapiens) (UniProt P35354+P23219). The following applies: Ovis aries.
The test system of assay [8] is SW480. Kind of assay: Anti-proliferative activity was evaluated by its ability to inhibit proliferation of SW480 cells. The class given is functional, cell-based, Homo sapiens.
The target in assay [9] is T1, Cyclooxygenase (Homo sapiens). Kind of assay: Half-maximal inhibition of the COX activity was measured by the direct analysis of the consumed O2 using isolated sheep seminal vesicles; na means Not active. The assay is classed as functional. The following applies: Ovis aries; target entry is the homologue from another species.
A short description of assay [10]: Inhibition of p21ras protein and Raf kinase in vitro using recombinant proteins (inactive).
In assay [11] the test system is MDCK. Kind of assay: Anti-proliferative activity was evaluated by its ability to inhibit proliferation of MDCK cells; na means Not active. The assay is classed as functional, cell-based, Canis lupus familiaris.
Assay [12] has as its system NIH3T3. Kind of assay: Anti-proliferative activity was evaluated by its ability to inhibit proliferation of murine NIH3T3 fibroblasts; na means Not active. The class given is functional, cell-based, Mus musculus.
Assay [13] has as its system MDCK. Kind of assay: Anti-proliferative activity was evaluated by its ability to inhibit proliferation of MDCK-f3 (Madin-Darby canine kidney f3) cell line; na means Not active. The class given is functional, cell-based, Canis lupus familiaris.
Assay [14] relates to REF. Kind of assay: Anti-proliferative activity was evaluated by its ability to inhibit proliferation of rat embryonic fibroblasts (REF); na means Not active. The class given is functional, cell-based.

`COc1ccc(C=C2C(C)=C(CC(=O)O)c3cc(F)ccc32)cc1`: the IC50 (usually the concentration needed to halve the response being measured) in the assay with MDCK [1] (Canis lupus familiaris, MDCK) was 310 µM; with SW480 [3], “Not Active”; in the assay with NIH3T3 [4] (Mus musculus, NIH3T3), 480 µM; in the assay with MDCK [5] (Canis lupus familiaris, MDCK), 460 µM; in the assay on REF [6] (Rattus norvegicus, REF) it was 500 µM. For the same compound, the Inhibitory activity in assay [2] amounted to 10; in [7], 1.6.

For the compound `CC1=C(CC(=O)O)c2cc(F)ccc2C1=Cc1ccc(CO)o1` [listing 1 of 3 here], the IC50 in the assay with MDCK [1] (Canis lupus familiaris, MDCK) turned out to be 130 µM; with NIH3T3 [4] (Mus musculus, NIH3T3), 450 µM; in the assay with MDCK [5] (mdck) it was 250 µM; in the assay with SW480 [8] (sw480), 310 µM; in the assay with REF [6] (Rattus norvegicus, REF), 90 µM.

Consider `CC1=C(CC(=O)O)c2cc(F)ccc2C1=Cc1ccc(C)o1` [listing 1 of 2 here], for which the IC50 worked out at 60 µM with MDCK [1] (mdck); 60 µM with NIH3T3 [4] (nih3t3); 60 µM in the assay with MDCK [5] (mdck); 80 µM in the assay on SW480 [8] (sw480); 10 µM in the assay on REF [6] (ref).

With `COc1cccc(C=C2C(C)=C(CC(=O)O)c3cc(F)ccc32)c1`, the IC50 in the assay on MDCK [1] (Canis lupus familiaris, MDCK) was 300 µM; with NIH3T3 [4] (Mus musculus, NIH3T3) it was 520 µM; in the assay on MDCK [5] (Canis lupus familiaris, MDCK), 275 µM; with SW480 [8] (Homo sapiens, SW480), 360 µM; in the assay on REF [6] (Rattus norvegicus, REF) it was 200 µM.

On to `CC1=C(CC(=O)O)c2cc(F)ccc2C1=Cc1ccoc1`, for which the IC50 was 50 µM in the assay on MDCK [1] (Canis lupus familiaris, MDCK); 170 µM with NIH3T3 [4] (Mus musculus, NIH3T3); 300 µM in the assay with MDCK [5] (Canis lupus familiaris, MDCK); 400 µM with SW480 [8] (Homo sapiens, SW480); 30 µM in the assay on REF [6] (Rattus norvegicus, REF). For the same compound, the Inhibitory activity in [2] came out at 30; in assay [7], 0.24.

As for `COc1ccccc1C=C1C(C)=C(CC(=O)O)c2cc(F)ccc21`, the IC50 in the assay on MDCK [1] (Canis lupus familiaris, MDCK) was 360 µM; in the assay on NIH3T3 [4] (Mus musculus, NIH3T3) it was 500 µM; in the assay on SW480 [8] (Homo sapiens, SW480) it was 850 µM; in the assay with REF [6] (Rattus norvegicus, REF), 200 µM.

For the compound `CSc1ccc(/C=C2/C(C)=C(CC(=O)O)c3cc(F)ccc32)cc1` [SULINDAC SULFIDE], the IC50 with MDCK [1] (Canis lupus familiaris, MDCK) turned out to be 200 µM; in the assay with NIH3T3 [4] (Mus musculus, NIH3T3), 350 µM; with MDCK [5] (Canis lupus familiaris, MDCK), 180 µM; with SW480 [8] (Homo sapiens, SW480), 200 µM; in the assay on REF [6] (Rattus norvegicus, REF), 200 µM. Further, the results for the Inhibitory activity in assay [2] and in [7] were 210 and 2.6, respectively.

`CC1=C(CC(=O)O)c2cc(F)ccc2C1=Cc1ccc([S+](C)[O-])cc1` (stereo unspecified) [SULINDAC]: the IC50 stood at 320 µM with MDCK [1] (Canis lupus familiaris, MDCK); 200 µM with NIH3T3 [4] (Mus musculus, NIH3T3); 300 µM with MDCK [5] (Canis lupus familiaris, MDCK); 800 µM in the assay with SW480 [8] (Homo sapiens, SW480); 100 µM in the assay on REF [6] (Rattus norvegicus, REF). The Inhibitory activity entry in assay [9] and in [10] was “inactive” in each case.

For the compound `CC1=C(CC(=O)O)c2cc(F)ccc2C1=Cc1ccc(CO)o1` [listing 2 of 3 here], the IC50 amounted to 120 µM in the assay on MDCK [1] (mdck); 490 µM in the assay with NIH3T3 [4] (nih3t3); 50 µM in the assay on MDCK [5] (mdck); 70 µM in the assay on SW480 [8] (sw480); 80 µM with REF [6] (ref).

As for `CC1=C(CC(=O)O)c2cc(F)ccc2C1=Cc1cccs1`, the IC50 with MDCK [1] (Canis lupus familiaris, MDCK) was found to be 80 µM; in the assay with NIH3T3 [4] (Mus musculus, NIH3T3) it was 400 µM; in the assay with MDCK [5] (Canis lupus familiaris, MDCK) it was 470 µM; with SW480 [8] (Homo sapiens, SW480) it was 320 µM; in the assay with REF [6] (Rattus norvegicus, REF), 100 µM. Further, in assay [10], the Inhibitory activity entry was “inactive”. In addition, the Inhibitory activity in assay [7] is 0.03.

For `CC1=C(CC(=O)O)c2cc(F)ccc2C1=Cc1ccc(S(=O)(=O)O)o1`, the IC50 result in the assay with MDCK [11], in the assay with NIH3T3 [12], in the assay on MDCK [13], in the assay with SW480 [3] and with REF [14] was “Not Active” each time.

For `CC1=C(CC(=O)O)c2cc(F)ccc2C1=Cc1ccc(CO)o1` [listing 3 of 3 here], the Inhibitory activity in assay [2] came out at 45; in assay [7], 570.

Turning to `CC1=C(CC(=O)O)c2cc(F)ccc2C1=Cc1ccc(C)o1` [listing 2 of 2 here], the IC50 in the assay on MDCK [1] (mdck) stood at 310 µM; in the assay on NIH3T3 [4] (Mus musculus, NIH3T3) it was 100 µM; in the assay with MDCK [5] (mdck) it was 250 µM; in the assay with SW480 [8] (sw480), 380 µM; with REF [6] (Rattus norvegicus, REF) it was 20 µM.
